How the values were obtained:
Assay in all cases: concentration in plasma after dosing
Rat [1] = settings: dosed: 1-Chloro-2-propanol, 7.5 mg/kg, oral, Male, F344
Rat [2] = settings: 0.5 h; dosed: 1-Chloro-2-propanol; 7.5 mg/kg; oral; Female; F344
Rat [3] = settings: dosed: 1-Chloro-2-propanol, 7.5 mg/kg, oral, Female, F344
Rat [4] = settings: 0.5 h; dosed: 1-Chloro-2-propanol; 7.5 mg/kg; oral; Female; F344; remark: listed apart in the source
Rat [5] = settings: dosed: 1-Chloro-2-propanol, 7.5 mg/kg, oral, Male, F344; remark: listed apart in the source
Rat [6] = settings: dosed: 1-Chloro-2-propanol, 7.5 mg/kg, oral, Female, F344; remark: listed apart in the source
Rat [7] = settings: 40 min; dosed: 1-Chloro-2-propanol; 7.5 mg/kg; oral; Male; F344
Rat [8] = settings: dosed: 1-Chloro-2-propanol, 7.5 mg/kg, oral, Male, F344; remark: listed apart in the source
Rat [9] = settings: dosed: 1-Chloro-2-propanol, 15 mg/kg, oral, Female, F344
Rat [10] = settings: dosed: 1-Chloro-2-propanol, 7.5 mg/kg, oral, Female, F344; remark: listed apart in the source
Rat [11] = settings: 10 min; dosed: 1-Chloro-2-propanol; 7.5 mg/kg; oral; Female; F344
Rat [12] = settings: dosed: 1-Chloro-2-propanol, 15 mg/kg, oral, Male, F344
Rat [13] = settings: dosed: 1-Chloro-2-propanol, 15 mg/kg, oral, Female, Harlan Sprague-Dawley
Rat [14] = settings: dosed: 1-Chloro-2-propanol, 15 mg/kg, oral, Female, Harlan Sprague-Dawley; remark: listed apart in the source
Rat [15] = settings: dosed: 1-Chloro-2-propanol, 15 mg/kg, oral, Female, F344; remark: listed apart in the source
Rat [16] = settings: 40 min; dosed: 1-Chloro-2-propanol; 15 mg/kg; oral; Male; F344
Rat [17] = settings: dosed: 1-Chloro-2-propanol, 15 mg/kg, oral, Male, F344; remark: listed apart in the source
Rat [18] = settings: dosed: 1-Chloro-2-propanol, 15 mg/kg, oral, Female, Harlan Sprague-Dawley; remark: listed apart in the source
Rat [19] = settings: dosed: 1-Chloro-2-propanol, 7.5 mg/kg, oral, Male, F344; remark: listed apart in the source
Rat [20] = settings: dosed: 1-Chloro-2-propanol, 7.5 mg/kg, oral, Female, F344; remark: listed apart in the source
Rat [21] = settings: dosed: 1-Chloro-2-propanol, 15 mg/kg, oral, Male, F344; remark: listed apart in the source
Rat [22] = settings: dosed: 1-Chloro-2-propanol, 15 mg/kg, oral, Female, Harlan Sprague-Dawley; remark: listed apart in the source
Rat [23] = settings: dosed: 1-Chloro-2-propanol, 7.5 mg/kg, oral, Male, F344; remark: listed apart in the source
Rat [24] = settings: dosed: 1-Chloro-2-propanol, 15 mg/kg, oral, Male, F344; remark: listed apart in the source
Rat [25] = settings: dosed: 1-Chloro-2-propanol, 7.5 mg/kg, oral, Male, F344; remark: listed apart in the source
Rat [26] = settings: dosed: 1-Chloro-2-propanol, oral
Rat [27] = settings: dosed: 1-Chloro-2-propanol, 7.5 mg/kg, oral, Male, F344; remark: listed apart in the source
Rat [28] = settings: dosed: 1-Chloro-2-propanol, 15 mg/kg, oral, Female, F344; remark: listed apart in the source
Rat [29] = settings: 20 min; dosed: 1-Chloro-2-propanol; 7.5 mg/kg; oral; Female; F344
Rat [30] = settings: dosed: 1-Chloro-2-propanol, 15 mg/kg, oral, Female, F344; remark: listed apart in the source

CC(O)CCl (stereo not drawn) [1-Chloro-2-propanol]
Settings | concentration in plasma [ng/mL]
Rat [1], 1 h | 393
Rat [1], 10 min | 900
Rat [3], 5 min | 2360
Rat [3], 40 min | 720
Rat [5], 0.5 h | 1040
Rat [5], 2 h | 75
Rat [6], 1.5 h | 81
Rat [6], 20 min | 740
Rat [8], 1.5 h | 108
Rat [8], 20 min | 1270
Rat [9], 2 h | 112
Rat [9], 10 min | 4730
Rat [10], 1 h | 133
Rat [10], 10 min | 1260
Rat [12], 1 h | 940
Rat [12], 5 min | 6120
Rat [13], 1.5 h | 354
Rat [13], 20 min | 6300
Rat [14], 0.5 h | 4680
Rat [14], 2.5 h | 71
Rat [15], 1 h | 897
Rat [15], 5 min | 4660
Rat [17], 2 h | 131
Rat [17], 10 min | 6070
Rat [18], 0.5 h | 3970
Rat [18], 2.5 h | 79
Rat [19], 0.5 h | 1360
Rat [19], 2 h | 56
Rat [20], 5 min | 1170
Rat [20], 40 min | 213
Rat [21], 2 h | 203
Rat [21], 10 min | 6460
Rat [22], 1.5 h | 780
Rat [22], 20 min | 4590
Rat [23], 1.5 h | 144
Rat [23], 20 min | 960
Rat [24], 1 h | 1020
Rat [24], 5 min | 3020
Rat [25], 1 h | 195
Rat [25], 10 min | 1400
Rat [27], 5 min | 1600
Rat [27], 40 min | 750
Rat [28], 2 h | 72
Rat [28], 10 min | 6200
Rat [30], 1 h | 630
Rat [30], 5 min | 6880

Settings | concentration in plasma [ng/mL]
Rat [2] | 730
Rat [4] | 740
Rat [7] | 810
Rat [11] | 1450
Rat [16] | 2740
Rat [29] | 830

concentration in plasma [ng/mL], Rat [26]
Settings | 0.5 h | 1 h | 1.5 h | 2 h | 2.5 h | 3 h | 5 min | 10 min | 20 min | 40 min
7.5 mg/kg, Female, F344 | 479 | 138 | – | – | – | – | 1920 | 1890 | 1660 | 534
7.5 mg/kg, Male, F344 | 740 | 334 | 117 | 70 | – | – | 1660 | 1830 | 1030 | 638
15 mg/kg, Female, F344 | – | 677 | – | 127 | – | – | 3360 | 3860 | 3180 | –
15 mg/kg, Female, Harlan Sprague-Dawley | 3270 | – | 768 | – | 69 | 59 | – | – | 3020 | 4110
15 mg/kg, Male, F344 | – | 920 | – | 159 | – | 107 | 1700 | 5370 | – | 3300

From EPA's CvTdb concentration-time database
